Results reported in publication PMC3124771 (Journal of immunology (Baltimore, Md. : 1950), 2011).

Test system: DR0301-restricted E2_281-300-specific T-cell line
Test: Tetramer staining of sorted T-cell line with peptide-loaded DR0301 tetramers
Type: cell-based, human
Details: quadrant boundary set by unloaded tetramer (Figure 2B)

E2_285-300: truncated version of E2_281-300; minimal epitope
Staining of T-cell line with tetramers loaded with peptide: could be stained
